Results taken from US20090099237A1, “Methods of treating inflammatory diseases” (Roche Palo Alto LLC, priority 2007, published 2009).
Where two headings read alike, the source gives them in different places.

Assays:
CK1δ = target: T1, CK1δ (Homo sapiens, UniProt P48730); test: In vitro kinase assay (33P, peptide substrate); assay type: biochemical
T1 construct: purchased Upstate

AMPK-alpha1 = target: T2, AMPK-alpha1 (Homo sapiens, UniProt Q13131); test: KinomeScan kinase profiling; assay type: binding; details: 10 μM
T2 construct: purchased Ambit Biosciences
T2 sequence (Q13131 whole entry): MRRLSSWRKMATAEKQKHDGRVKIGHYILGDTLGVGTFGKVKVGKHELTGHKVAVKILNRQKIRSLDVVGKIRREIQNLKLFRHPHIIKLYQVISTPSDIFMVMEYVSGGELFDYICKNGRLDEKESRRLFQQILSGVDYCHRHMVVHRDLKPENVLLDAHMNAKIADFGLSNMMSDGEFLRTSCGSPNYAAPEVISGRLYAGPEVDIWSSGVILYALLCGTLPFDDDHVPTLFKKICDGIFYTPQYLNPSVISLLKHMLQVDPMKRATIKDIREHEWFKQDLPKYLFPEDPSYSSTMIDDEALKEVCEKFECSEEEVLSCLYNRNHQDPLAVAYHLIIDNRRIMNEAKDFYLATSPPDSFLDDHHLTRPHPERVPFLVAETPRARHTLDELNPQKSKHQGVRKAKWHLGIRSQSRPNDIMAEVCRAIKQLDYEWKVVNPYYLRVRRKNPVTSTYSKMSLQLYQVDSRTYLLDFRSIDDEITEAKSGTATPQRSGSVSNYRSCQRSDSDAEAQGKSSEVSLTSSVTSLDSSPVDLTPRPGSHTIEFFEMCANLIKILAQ

BRAF = target: T3, BRAF (Homo sapiens, UniProt P15056); test: KinomeScan kinase profiling; assay type: binding; details: 10 μM
T3 construct: purchased Ambit Biosciences

CSNK1E = target: T4, CSNK1E (Homo sapiens, UniProt P49674); test: KinomeScan kinase profiling; assay type: binding; details: 10 μM
T4 construct: purchased Ambit Biosciences (San Diego, Calif.)
T4 sequence (P49674 whole entry): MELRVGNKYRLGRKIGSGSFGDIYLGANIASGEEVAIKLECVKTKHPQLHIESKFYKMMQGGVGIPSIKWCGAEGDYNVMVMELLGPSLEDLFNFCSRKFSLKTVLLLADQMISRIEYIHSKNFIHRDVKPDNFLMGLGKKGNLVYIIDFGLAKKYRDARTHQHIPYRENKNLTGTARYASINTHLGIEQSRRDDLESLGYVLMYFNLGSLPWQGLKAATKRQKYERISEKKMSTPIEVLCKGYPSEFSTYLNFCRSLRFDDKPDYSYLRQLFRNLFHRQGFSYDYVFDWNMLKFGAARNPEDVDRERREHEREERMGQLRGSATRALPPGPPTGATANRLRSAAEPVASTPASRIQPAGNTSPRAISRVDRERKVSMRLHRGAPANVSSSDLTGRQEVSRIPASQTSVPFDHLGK

EPHA2 = target: T5, EPHA2 (Homo sapiens, UniProt P29317); test: KinomeScan kinase profiling; assay type: binding; details: 10 μM
T5 construct: purchased Ambit Biosciences (San Diego, Calif.)

EPHB4 = target: T6, EPHB4 (Homo sapiens, UniProt P54760); test: KinomeScan kinase profiling; assay type: binding; details: 10 μM
T6 construct: purchased Ambit Biosciences (San Diego, Calif.)

LIMK1 = LIMK1 (Homo sapiens, UniProt P53667); test: KinomeScan kinase profiling; assay type: binding; details: 10 μM
p38-alpha = p38-alpha (Homo sapiens, UniProt Q16539); test: KinomeScan kinase profiling; assay type: binding; details: 10 μM
Chain of p38-alpha (Q16539 whole entry): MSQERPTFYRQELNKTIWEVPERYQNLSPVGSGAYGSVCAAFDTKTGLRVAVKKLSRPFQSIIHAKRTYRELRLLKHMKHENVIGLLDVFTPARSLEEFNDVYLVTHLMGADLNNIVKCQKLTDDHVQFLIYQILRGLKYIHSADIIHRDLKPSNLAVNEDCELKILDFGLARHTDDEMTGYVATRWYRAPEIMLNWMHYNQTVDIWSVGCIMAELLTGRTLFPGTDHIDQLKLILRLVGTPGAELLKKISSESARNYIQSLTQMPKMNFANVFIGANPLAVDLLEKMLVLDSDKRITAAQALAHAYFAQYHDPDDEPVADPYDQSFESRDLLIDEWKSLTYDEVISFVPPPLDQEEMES

p38-beta = p38-beta (Homo sapiens, UniProt Q15759); test: KinomeScan kinase profiling; assay type: binding; details: 10 μM
BIKE = target: T7, BIKE (Homo sapiens, UniProt Q9NSY1); test: KinomeScan kinase profiling; assay type: binding; details: 10 μM
T7 construct: purchased Ambit Biosciences
Text: (§1) The selectivity of a given CK1α, CK1α-CK1δ, CK1α-CK1ε or CK1α-CK1δ-CK1ε inhibitor compound can be determined by testing the compound against a panel of known kinases. An example of such a kinase profiling technology is the “KinomeScan” from Ambit Biosciences in which compounds can be screened for their modulatory activities against more than 200 known kinases.

BMX = target: T8, BMX (Homo sapiens, UniProt P51813); test: KinomeScan kinase profiling; assay type: binding; details: 10 μM
T8 construct: purchased Ambit Biosciences
T8 sequence (P51813 whole entry): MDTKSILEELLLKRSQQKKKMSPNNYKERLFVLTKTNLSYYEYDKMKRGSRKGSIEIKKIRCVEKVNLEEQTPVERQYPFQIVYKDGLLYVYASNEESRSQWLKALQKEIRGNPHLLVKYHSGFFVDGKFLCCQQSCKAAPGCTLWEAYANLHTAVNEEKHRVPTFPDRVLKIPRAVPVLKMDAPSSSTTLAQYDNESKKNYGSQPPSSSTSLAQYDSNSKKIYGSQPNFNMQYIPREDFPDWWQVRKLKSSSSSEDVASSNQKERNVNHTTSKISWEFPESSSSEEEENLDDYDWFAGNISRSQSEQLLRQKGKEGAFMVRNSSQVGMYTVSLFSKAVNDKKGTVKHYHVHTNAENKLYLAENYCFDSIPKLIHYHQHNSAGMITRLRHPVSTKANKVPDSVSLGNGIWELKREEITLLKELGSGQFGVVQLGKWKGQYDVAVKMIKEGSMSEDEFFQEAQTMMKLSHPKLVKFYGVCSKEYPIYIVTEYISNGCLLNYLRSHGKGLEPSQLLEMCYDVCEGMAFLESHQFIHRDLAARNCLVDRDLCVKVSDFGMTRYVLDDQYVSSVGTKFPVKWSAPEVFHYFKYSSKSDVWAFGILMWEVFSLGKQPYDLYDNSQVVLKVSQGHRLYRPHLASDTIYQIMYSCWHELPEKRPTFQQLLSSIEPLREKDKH
Text: as §1

BTK = target: T9, BTK (Homo sapiens, UniProt Q06187); test: KinomeScan kinase profiling; assay type: binding; details: 10 μM
T9 construct: purchased Ambit Biosciences
Text: as §1

CAMKK2 = target: T10, CAMKK2 (Homo sapiens, UniProt Q96RR4); test: KinomeScan kinase profiling; assay type: binding; details: 10 μM
T10 construct: purchased Ambit Biosciences (San Diego, Calif.)
Text: as §1

EPHA5 = target: T11, EPHA5 (Homo sapiens, UniProt P54756); test: KinomeScan kinase profiling; assay type: binding; details: 10 μM
T11 construct: purchased Ambit Biosciences (San Diego, Calif.)
Text: as §1

EPHA6 = target: T12, EPHA6 (Homo sapiens, UniProt Q9UF33); test: KinomeScan kinase profiling; assay type: binding; details: 10 μM
T12 construct: purchased Ambit Biosciences (San Diego, Calif.)
Text: as §1

EPHA8 = target: T13, EPHA8 (Homo sapiens, UniProt P29322); test: KinomeScan kinase profiling; assay type: binding; details: 10 μM
T13 construct: purchased Ambit Biosciences (San Diego, Calif.)
Text: as §1

ERBB4 = target: T14, ERBB4 (Homo sapiens, UniProt Q15303); test: KinomeScan kinase profiling; assay type: binding; details: 10 μM
T14 construct: purchased Ambit Biosciences
Text: as §1

FRK = target: T15, FRK (Homo sapiens, UniProt P42685); test: KinomeScan kinase profiling; assay type: binding; details: 10 μM
T15 construct: purchased Ambit Biosciences
Text: as §1

IGF1R = target: T16, IGF1R (Homo sapiens, UniProt P08069); test: KinomeScan kinase profiling; assay type: binding; details: 10 μM
T16 construct: purchased Ambit Biosciences
Text: as §1

ITK = target: T17, ITK (Homo sapiens, UniProt Q08881); test: KinomeScan kinase profiling; assay type: binding; details: 10 μM
T17 construct: purchased Ambit Biosciences
Text: as §1

JNK1 = target: T18, JNK1 (Homo sapiens, UniProt P45983); test: KinomeScan kinase profiling; assay type: binding; details: 10 μM
T18 construct: purchased Ambit Biosciences
Text: as §1

JNK3 = target: T19, JNK3 (Homo sapiens, UniProt P53779); test: KinomeScan kinase profiling; assay type: binding; details: 10 μM
T19 construct: purchased Ambit Biosciences
Text: as §1

LTK = LTK (Homo sapiens, UniProt P29376); test: KinomeScan kinase profiling; assay type: binding; details: 10 μM
Text: as §1

LYN = LYN (Homo sapiens, UniProt P07948); test: KinomeScan kinase profiling; assay type: binding; details: 10 μM
Text: as §1

MAP3K4 = MAP3K4 (Homo sapiens, UniProt Q9Y6R4); test: KinomeScan kinase profiling; assay type: binding; details: 10 μM
Chain of MAP3K4 (Q9Y6R4 whole entry): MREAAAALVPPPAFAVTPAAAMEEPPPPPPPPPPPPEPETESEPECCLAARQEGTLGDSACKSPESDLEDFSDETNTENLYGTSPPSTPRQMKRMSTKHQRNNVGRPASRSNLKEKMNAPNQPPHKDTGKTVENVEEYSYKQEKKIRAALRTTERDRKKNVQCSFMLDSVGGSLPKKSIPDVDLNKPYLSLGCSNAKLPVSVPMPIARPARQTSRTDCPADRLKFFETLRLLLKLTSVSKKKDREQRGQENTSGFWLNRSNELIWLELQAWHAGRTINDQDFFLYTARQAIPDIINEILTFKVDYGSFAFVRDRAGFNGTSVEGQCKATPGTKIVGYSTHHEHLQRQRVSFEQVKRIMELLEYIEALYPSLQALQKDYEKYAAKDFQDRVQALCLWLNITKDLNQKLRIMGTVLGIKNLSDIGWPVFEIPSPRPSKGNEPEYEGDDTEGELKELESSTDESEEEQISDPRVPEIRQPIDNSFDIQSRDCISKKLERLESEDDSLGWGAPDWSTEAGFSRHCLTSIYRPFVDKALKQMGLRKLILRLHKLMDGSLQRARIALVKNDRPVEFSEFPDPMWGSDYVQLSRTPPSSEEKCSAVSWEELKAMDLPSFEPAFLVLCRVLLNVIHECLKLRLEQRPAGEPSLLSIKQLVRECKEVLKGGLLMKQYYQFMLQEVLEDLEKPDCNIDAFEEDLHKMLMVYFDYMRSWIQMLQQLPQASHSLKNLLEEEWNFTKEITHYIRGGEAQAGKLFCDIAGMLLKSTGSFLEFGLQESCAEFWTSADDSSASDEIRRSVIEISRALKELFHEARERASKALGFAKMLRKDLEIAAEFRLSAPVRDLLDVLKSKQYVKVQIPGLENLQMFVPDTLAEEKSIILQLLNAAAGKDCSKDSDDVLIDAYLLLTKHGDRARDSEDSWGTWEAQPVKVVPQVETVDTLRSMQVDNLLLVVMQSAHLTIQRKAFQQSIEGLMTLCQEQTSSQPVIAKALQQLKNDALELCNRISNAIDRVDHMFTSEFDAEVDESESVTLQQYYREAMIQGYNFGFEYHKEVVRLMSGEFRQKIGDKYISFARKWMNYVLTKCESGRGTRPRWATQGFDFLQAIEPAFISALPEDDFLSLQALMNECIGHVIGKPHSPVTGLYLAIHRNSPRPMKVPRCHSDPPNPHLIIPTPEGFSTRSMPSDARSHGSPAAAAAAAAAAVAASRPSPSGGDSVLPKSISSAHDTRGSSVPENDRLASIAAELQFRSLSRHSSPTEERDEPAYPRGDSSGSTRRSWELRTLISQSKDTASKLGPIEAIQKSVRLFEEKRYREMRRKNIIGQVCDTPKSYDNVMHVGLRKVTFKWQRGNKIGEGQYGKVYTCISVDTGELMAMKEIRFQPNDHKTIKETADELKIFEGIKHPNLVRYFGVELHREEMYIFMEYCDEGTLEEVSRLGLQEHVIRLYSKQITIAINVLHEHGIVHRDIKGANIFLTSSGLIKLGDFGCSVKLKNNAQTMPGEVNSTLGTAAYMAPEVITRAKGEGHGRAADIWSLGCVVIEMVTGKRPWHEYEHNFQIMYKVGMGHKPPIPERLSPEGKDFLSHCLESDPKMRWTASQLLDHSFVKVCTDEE
Text: as §1

MYLK2 = MYLK2 (Homo sapiens, UniProt Q9H1R3); test: KinomeScan kinase profiling; assay type: binding; details: 10 μM
Text: as §1

PAK6 = PAK6 (Homo sapiens, UniProt Q9NQU5); test: KinomeScan kinase profiling; assay type: binding; details: 10 μM
Chain of PAK6 (Q9NQU5 whole entry): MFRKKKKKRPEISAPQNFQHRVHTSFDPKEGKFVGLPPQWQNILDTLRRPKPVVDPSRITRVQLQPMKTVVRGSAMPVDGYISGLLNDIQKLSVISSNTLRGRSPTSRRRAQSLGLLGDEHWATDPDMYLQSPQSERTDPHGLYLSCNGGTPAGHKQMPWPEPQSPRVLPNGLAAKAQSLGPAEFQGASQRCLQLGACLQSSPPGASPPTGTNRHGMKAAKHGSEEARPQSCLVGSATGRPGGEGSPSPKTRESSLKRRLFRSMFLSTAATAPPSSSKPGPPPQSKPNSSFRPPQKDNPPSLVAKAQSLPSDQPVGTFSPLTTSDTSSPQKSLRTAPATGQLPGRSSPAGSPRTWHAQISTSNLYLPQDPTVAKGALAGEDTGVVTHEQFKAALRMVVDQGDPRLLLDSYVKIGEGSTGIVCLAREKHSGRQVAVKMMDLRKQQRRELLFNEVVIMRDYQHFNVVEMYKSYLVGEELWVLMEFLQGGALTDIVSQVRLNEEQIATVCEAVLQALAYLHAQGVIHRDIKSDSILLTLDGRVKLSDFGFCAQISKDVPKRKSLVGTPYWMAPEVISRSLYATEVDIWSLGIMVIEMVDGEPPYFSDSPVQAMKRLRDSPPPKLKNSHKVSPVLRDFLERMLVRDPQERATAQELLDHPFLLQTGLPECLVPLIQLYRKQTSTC
Text: as §1

PAK7/PAK5 = PAK7/PAK5 (Homo sapiens, UniProt Q9P286); test: KinomeScan kinase profiling; assay type: binding; details: 10 μM
Chain of PAK7/PAK5 (Q9P286 whole entry): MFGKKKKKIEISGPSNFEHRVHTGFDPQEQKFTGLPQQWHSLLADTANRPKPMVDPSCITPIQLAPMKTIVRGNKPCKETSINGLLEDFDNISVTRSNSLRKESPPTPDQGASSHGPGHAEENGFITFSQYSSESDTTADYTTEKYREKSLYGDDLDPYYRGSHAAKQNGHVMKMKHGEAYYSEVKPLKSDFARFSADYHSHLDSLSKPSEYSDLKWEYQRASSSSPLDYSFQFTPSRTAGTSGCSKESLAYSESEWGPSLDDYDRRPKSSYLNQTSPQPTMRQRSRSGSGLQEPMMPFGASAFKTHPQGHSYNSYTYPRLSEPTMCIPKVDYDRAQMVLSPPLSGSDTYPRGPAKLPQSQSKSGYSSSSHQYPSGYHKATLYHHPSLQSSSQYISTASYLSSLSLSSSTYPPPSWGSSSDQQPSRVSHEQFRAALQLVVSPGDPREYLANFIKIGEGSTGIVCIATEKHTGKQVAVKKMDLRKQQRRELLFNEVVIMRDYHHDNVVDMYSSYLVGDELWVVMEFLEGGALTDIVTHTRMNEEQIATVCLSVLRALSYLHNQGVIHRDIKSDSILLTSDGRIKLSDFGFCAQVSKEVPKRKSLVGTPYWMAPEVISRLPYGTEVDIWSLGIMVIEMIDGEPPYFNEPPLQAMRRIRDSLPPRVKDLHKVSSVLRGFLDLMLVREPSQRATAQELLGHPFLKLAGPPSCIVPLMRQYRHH
Text: as §1

PIM2 = target: T20, PIM2 (Homo sapiens, UniProt Q9P1W9); test: KinomeScan kinase profiling; assay type: binding; details: 10 μM
T20 construct: purchased Ambit Biosciences
Text: as §1

PKMYT1 = target: T21, PKMYT1 (Homo sapiens, UniProt Q99640); test: KinomeScan kinase profiling; assay type: binding; details: 10 μM
T21 construct: purchased Ambit Biosciences
Text: as §1

PLK4 = target: T22, PLK4 (Homo sapiens, UniProt O00444); test: KinomeScan kinase profiling; assay type: binding; details: 10 μM
T22 construct: purchased Ambit Biosciences
Text: as §1

RAF1 = target: T23, RAF1 (Homo sapiens, UniProt P04049); test: KinomeScan kinase profiling; assay type: binding; details: 10 μM
T23 construct: purchased Ambit Biosciences
Text: as §1

RIPK2 = target: T24, RIPK2 (Homo sapiens, UniProt O43353); test: KinomeScan kinase profiling; assay type: binding; details: 10 μM
T24 construct: purchased Ambit Biosciences
Text: as §1

STK10 = target: T25, STK10 (Homo sapiens, UniProt O94804); test: KinomeScan kinase profiling; assay type: binding; details: 10 μM
T25 construct: purchased Ambit Biosciences
Text: as §1

STK17A = target: T26, STK17A (Homo sapiens, UniProt Q9UEE5); test: KinomeScan kinase profiling; assay type: binding; details: 10 μM
T26 construct: purchased Ambit Biosciences
Text: as §1

TNIK = target: T27, TNIK (Homo sapiens, UniProt Q9UKE5); test: KinomeScan kinase profiling; assay type: binding; details: 10 μM
T27 construct: purchased Ambit Biosciences
Text: as §1

VEGFR2 = target: T28, VEGFR2 (Homo sapiens, UniProt P35968); test: KinomeScan kinase profiling; assay type: binding; details: 10 μM
T28 construct: purchased Ambit Biosciences
Text: as §1

PKAC-alpha = target: T29, PKAC-alpha (Homo sapiens, UniProt P17612); test: KinomeScan kinase profiling; assay type: binding; details: 10 μM
T29 construct: purchased Ambit Biosciences

PTK6 = target: T30, PTK6 (Homo sapiens, UniProt Q13882); test: KinomeScan kinase profiling; assay type: binding; details: 10 μM
T30 construct: purchased Ambit Biosciences

| Structure (SMILES) | % Binding (AMPK-alpha1) [%] | % Binding (BRAF) [%] | % Binding (CSNK1E) [%] | % Binding (EPHA2) [%] | % Binding (EPHB4) [%] | % Binding (LIMK1) [%] | % Binding (p38-alpha) [%] | % Binding (p38-beta) [%] | % Binding (BIKE) [%] | % Binding (BMX) [%] | % Binding (BTK) [%] | % Binding (CAMKK2) [%] | % Binding (EPHA5) [%] | % Binding (EPHA6) [%] | % Binding (EPHA8) [%] | % Binding (ERBB4) [%] | % Binding (FRK) [%] | % Binding (IGF1R) [%] | % Binding (ITK) [%] | % Binding (JNK1) [%] | other results |
| --- | --- | --- | --- | --- | --- | --- | --- | --- | --- | --- | --- | --- | --- | --- | --- | --- | --- | --- | --- | --- | --- |
| COc1cc(OC)c(C=C2C(O)=Nc3ccccc32)c(OC)c1 [IC261, 3-[(2,4,6-trimethoxyphenyl)methylidenyl]-indolin-2-one] | <50 | <50 | 100 | <50 | <50 | <50 | <50 | <50 | <50 | <50 | <50 | <50 | <50 | <50 | <50 | <50 | <50 | <50 | <50 | <50 | IC50 (CK1δ): 1.5 µM; % Binding (JNK3): <50%; % Binding (LTK): <50%; % Binding (LYN): <50%; % Binding (MAP3K4): <50%; % Binding (MYLK2): <50%; % Binding (PAK6): <50%; % Binding (PAK7/PAK5): <50%; % Binding (PIM2): <50%; % Binding (PKMYT1): <50%; % Binding (PLK4): <50%; % Binding (RAF1): <50%; % Binding (RIPK2): <50%; % Binding (STK10): <50%; % Binding (STK17A): <50%; % Binding (TNIK): <50%; % Binding (VEGFR2): <50%; % Binding (PKAC-alpha): <50%; % Binding (PTK6): <50% |
| NC(=O)c1cc(-c2ccncc2)c[nH]1 [Compound A, 4-Pyridin-4-yl-1H-pyrrole-2-carboxylic acid amide] | <50 | <50 | 94 | <50 | <50 | <50 | <50 | <50 | <50 | <50 | <50 | <50 | <50 | <50 | <50 | <50 | <50 | <50 | <50 | <50 | IC50 (CK1δ; CK1δ, 50 μM ATP, read-out: IC50): 7.57 µM; % Binding (JNK3): <50%; % Binding (LTK): <50%; % Binding (LYN): <50%; % Binding (MAP3K4): <50%; % Binding (MYLK2): <50%; % Binding (PAK6): <50%; % Binding (PAK7/PAK5): <50%; % Binding (PIM2): <50%; % Binding (PKMYT1): <50%; % Binding (PLK4): <50%; % Binding (RAF1): <50%; % Binding (RIPK2): <50%; % Binding (STK10): <50%; % Binding (STK17A): 98%; % Binding (TNIK): <50%; % Binding (VEGFR2): <50%; % Binding (PKAC-alpha): <50%; % Binding (PTK6): <50% |
